Read-outs that look alike come from different tables or passages of the source. Some results are limits rather than exact numbers.

Broadly, the IC50 is the concentration needed to halve the response being measured. As a reminder, the % Inhibition is the percentage by which the read-out fell short of the control.

The test system of one experiment is NF-AT (FGL-5 cells). Kind of experiment: NF-AT Inhibition Assay Directed β-Galactosidase Expression. The class given is cell-based. The protocol:
Inhibition of NF-AT activity is measured using FGL-5 cells. FGL-5 is a cloned line of stably transfected Jurkat T-cells that contain a construct in which three tandem copies of the NF-AT DNA binding site direct transcription of the lacZ gene, encoding β-galactosidase (Fiering et al., 1990, Genes & Development 4:1823). When these cells are stimulated with phorbol esters which activate protein kinase C and calcium ionophore to raise the intracellular calcium concentration, transcriptionally active NF-AT is produced. In T-cells, this normally leads to the expression of IL-2, T-cell growth factor. However, in FGL-5 cells NF-AT activation leads to the production of β-galactosidase which can be detected using an appropriate substrate.
This assay was performed essentially as described (Bierer et al., 1990, Proc. Natl. Acad. Sci. 87:923 1). FGL-5 cells were maintained in medium consisting of RPMI-1640 with 10% FBS, 2 mM L-glutamine, 1% Penicillin-Streptomycin and 15 mM HEPES buffer. The assays were done with exponentially growing cells whose density was not greater than 0.5 million cells/ml. The cells were resuspended to 3 million cells/ml in medium and 0.1 ml was added to wells of a 96-well plate.
The compounds of the present invention were dissolved in either ethanol or dimethylsulfoxide at 10 mM and 0.05 ml/well of various dilutions in medium were added to cells in duplicate wells. Treatment controls consisted of duplicate wells to which 0.05 ml/well of either medium, ethanol or dimethylsulfoxide was added. The ethanol and dimethyl sulfoxide were at the same concentration as was used for the compounds. Cells were incubated with compounds at room temperature for 10-15 minutes. Phorbol dibutyrate (Sigma) and Ionomycin (Calbiochem) were dissolved at 50 μg/ml and 2 mM, respectively and stored at -70° C.
FGL-5 cells were stimulated by diluting these reagents with medium to 200 ng/ml and 8 μM, respectively and adding of 0.05 ml/well. For unstimulated cell controls, 0.05 ml/well of medium was added to duplicate wells. The plates were incubated overnight (16-18 hours) at 37° C. in a humidified atmosphere of 5% CO2 and air.
β-galactosidase activity was measured as the fluorescence generated by the cleavage of 4-methyl umbelliferyl-β-D-galactoside (Sigma) at the β-galactoside bond. After overnight incubation, the cells were centrifuged at 500×g for 3 minutes in the 96-well plates and washed 3 times with PBS. The cells were then resuspended in 0.18 ml/well of reaction medium containing 100 mM sodium phosphate buffer, pH 7.0, 10 mM potassium chloride, 1 mM magnesium sulfate, 0.1% Triton X-100 (Pierce, Rockford, Ill.), and 0.5 mM 4-methylumbelliferyl-β-D-galactoside.
The fluorescence at 460 nm using 3 55 nm excitation was measured at intervals over 1-2 hours (during which fluorescence increased linearly with time) with a LS50 Luminescence Spectrometer (Perkin Elmer).
The percent inhibition by each concentration of the compounds was calculated as: [formula]
The values of the concentration of compounds required for 50% inhibition (IC50) were determined by linear regression analysis of the percent inhibition at various compound concentrations.

In the next experiment the test system is Lewis rats. In words: Adjuvant Arthritis Model in the Rat. The experiment is classed as in vivo. The following applies: for % Inhibition: inhibition of swelling in uninjected limb vs vehicle control, 10 mg/kg/dose i.p.; for ΔAnkle Diameter: uninjected hind paw, day 0 to day 16, 10 mg/kg/dose i.p. on days -1, 0, 2, 5, 7, 9, 12 and 14. The protocol:
Complete Freund's adjuvant is made by supplementing extra heavy mineral oil with 10 mg/ml heat killed Mycobacterium butyricum (Difco Laboratories, Detroit, Mich.). Lewis rats (Charles Rivers, Willmington, Mass.) are given a 0.1 ml injection of adjuvant (1 mg/animal mycobacterium) subcutaneously into the right hind footpad. In the injected foot, an acute inflammatory reaction occurs which is characterized by erythema, edema and a predominantly neutrophilic cell infiltrate. This is followed by edema in the uninjected contralateral foot by days 10-12. This secondary response is accompanied by a predominantly mononuclear cell infiltrate, indicating the presence of cell-mediated immunity.
The immune response is quantitated by measuring the change in ankle diameter of the uninjected hind paw from day 0 to day 16 post sensitization. This is accomplished using a hand-held dial micrometer. Animals are administered test drugs, suspended in a vehicle consisting of 5% polyethylene glycol and 0.5% Tween-80 (Sigma Chemical Co., St. Louis, Mo.) in phosphate buffered saline (GIBCO, Grand Island, N.Y.), i.p. on days -1, 0, 2, 5, 7, 9, 12 and 14. Several compounds when administered at 10 mg/kg/dose inhibited the swelling in the uninjected limb compared with the control groups that were sensitized with Complete Freund's Adjuvant but received only the vehicle i.p. (Table 4).

[1] abbreviates: inhibition of β-galactosidase activity in FGL-5 cells stimulated with phorbol dibutyrate and ionomycin, read-out: IC50.
Where [2] appears, read: stimulated FGL-5 cells, read-out: IC50 for NF-AT directed β-galactosidase expression.

As for `CC[C@H](C)[C@H](NC(=O)[C@@H]1CCCN1C[C@H](CC(C)C)NC(=O)OC(C)(C)C)C(=O)NCc1ccccc1` [Example 2, 1-[1-[2-(S)-[[(1,1-Dimethylethoxy)carbonyl]amino]-4-methylpentyl]-L-proline]-L-isoleucine Benzylamide], the concentration for half-maximal inhibition (IC50) with NF-AT (FGL-5 cells) (setting [1]) turned out to be 13 µM.
On to `CC[C@H](C)[C@H](NC(=O)[C@@H]1CCCCN1C[C@@H](NC(=O)OC(C)(C)C)[C@@H](C)CC)C(=O)NCc1ccccc1` [Example 3, 1-[1-[2-(S)-[[(1,1-Dimethylethoxy)carbonyl]amino]-3-(S)-methylpentyl]-L-homoproline]-L-isoleucine Benzylamide], for which the IC50 in the experiment with NF-AT (FGL-5 cells) (setting [1]) came to 1 µM. Moreover, in the experiment on Lewis rats, the “% Inhibition” value worked out at 30% and the “ΔAnkle Diameter” value came to 2.6 ± 0.4 mm.
The like results for `CC[C@H](C)[C@H](NC(=O)[C@@H]1CCCN1C[C@@H](NC(=O)OC(C)(C)C)[C@@H](C)CC)C(=O)NCc1ccccc1` [Example 6] were, in that order, 8 µM, 4% and 3.2 ± 0.3 mm.
For the molecule `CCC(C)[C@@H](CN1CCC[C@H]1C(=O)N[C@H](C(=O)NCc1ccccc1)[C@@H](C)CC)NC(=O)[C@H](CC1CCCCC1)NC(=O)OC(C)(C)C` (stereo partly drawn) [Example 7, 1-[1-[2-(S)-[[2-(S)-[[(1,1-Dimethylethoxy)carbonyl]amino]-1-oxo-3-cyclohexylpropyl]amino]-3-methylpentyl]-L-proline]-L-isoleucine Benzylamide], the IC50 in the experiment on NF-AT (FGL-5 cells) (setting [1]) was above 15 µM.
Still for that read-out and setting: as for `CCC(C)[C@@H](CN1CCC[C@H]1C(=O)N[C@H](C(=O)NCc1ccccc1)[C@@H](C)CC)NC(=O)[C@@H](N)CC1CCCCC1` (some centres unmarked) [Example 8], the figure is above 15 µM.
As for `CC[C@H](C)[C@H](NC(=O)[C@@H]1CCCN1C[C@H](CC(C)C)NC(=O)[C@H](CC(N)=O)NC(=O)[C@H](Cc1ccccc1)NC(=O)OC(C)(C)C)C(=O)OCc1ccccc1` [Example 14, 1-[1-[2-(S)-[[1-[1-[(1,1-Dimethylethoxy)carbonyl]-L-phenylalanyl]-L-asparaginyl]amino]-4-methylpentyl]-L-proline]-L-isoleucine Phenylmethyl Ester], the IC50 in the experiment on NF-AT (FGL-5 cells) (setting [2]) is at most 10 µM.
Turning to `CC[C@H](C)[C@H](NC(=O)[C@@H]1CCCN1C[C@H](CC1CCCCC1)NC(=O)OC(C)(C)C)C(=O)NCc1ccccc1` [Example 16, 1-[1-[2-(S)-[[(1,1-dimethylethoxy)carbonyl]amino]-3-cyclohexylpropyl]-L-proline]-L-isoleucine Benzylamide], in the experiment with NF-AT (FGL-5 cells) (setting [1]), the IC50 was determined as 19 µM.
With `CC[C@H](C)[C@H](NC(=O)[C@@H]1CCCN1C[C@@H](NC(=O)OC(C)(C)C)C(C)C)C(=O)NCc1ccccc1` [Example 17, 1-[1-[2-(S)-[[(1,1-dimethylethoxy)carbonyl]amino]-3-methylbutyl]-L-proline] -L-isoleucine Benzylamide], the IC50 in the experiment on NF-AT (FGL-5 cells) (setting [1]) was 29 µM; in the experiment on NF-AT (FGL-5 cells) (setting [2]), at most 10 µM.
For `CC[C@H](C)[C@H](NC(=O)[C@@H]1CCCCN1C[C@H](CC(C)C)NC(=O)OC(C)(C)C)C(=O)NCc1ccccc1` [Example 18, 1-[1-[2-(S)-[[(1,1-Dimethylethoxy)carbonyl]amino]-4-methylpentyl]-L-homoproline]-L-isoleucine Benzylamide], in the experiment with NF-AT (FGL-5 cells) (setting [1]), the concentration for half-maximal inhibition (IC50) is above 15 µM.
As to `CC[C@H](C)[C@@H](CN1CCCC[C@H]1C(=O)N[C@H](C(=O)NCc1ccccc1)[C@@H](C)OCc1ccccc1)NC(=O)OC(C)(C)C` [Example 19, 1-[1-[2-(S)-[[(1,1-Dimethylethoxy)carbonyl]amino]-3-(S)-methylpentyl]-L-homoproline]-L-threonene(O-Benzyl Ether)Benzylamide], the IC50 in the experiment on NF-AT (FGL-5 cells) (setting [1]) was 9 µM. In the experiment on Lewis rats, the “% Inhibition” value turned out to be 43% and the “ΔAnkle Diameter” value was 2.1 ± 0.6 mm.
